Data on 1 compound can be found in patent publication US8680155B2, “Synthesis and antitumor activity of novel bis(benzylidene-benzenamine)disulfides” (Kaohsiung Medical University, priority 2011, dated 2014).

What all share (assay type): cell-based
Experiment [1] concerns LOX MVI. Briefly: MTT cytotoxicity, LOX MVI melanoma. The method, then:
(§1) For confirming the cytotoxicity of bis(benzylidene-benzenamine)disulfides of the invention on various cancer cells, the well known MTT (3-(4,5-dimethylthiazol-2-yl)-2,5-diphenyltetrazolium bromide) colorimetric assay in this art was performed, and the method was not detailedly described herein. Please refer to Table 3, compound 12 was selected from compounds 1 to 24 to proceed cytotoxicity experiment.

For experiment [2], the system named is SK-MEL-5. Put plainly: MTT cytotoxicity, SK-MEL-5 melanoma. To be noted: SK-MEL-5, MTT. The method, then: as §1
Experiment [3] concerns MALME-3M. Briefly: MTT cytotoxicity, MALME-3M melanoma. As to the method:
as §1

Experiment [4] deals with HCT-15. Put plainly: MTT cytotoxicity, HCT-15 colon cancer. Conditions: HCT-15, MTT. The method, then:
as §1

In experiment [5] the test system is T-47D. Briefly: MTT cytotoxicity, T-47D breast cancer. As to the method:
as §1

The test system of experiment [6] is HOP-92. Briefly: MTT cytotoxicity, HOP-92 non-small cell lung cancer. To be noted: HOP-92, MTT. The method, then: as §1
Experiment [7] concerns SNB-75. Put plainly: MTT cytotoxicity, SNB-75 central nervous system cancer. Conditions: SNB-75, MTT. As to the method: as §1
The test system of experiment [8] is NCI-H226. Put plainly: MTT cytotoxicity, NCI-H226 non-small cell lung cancer. The method, then: as §1
The subject of experiment [9] is selected cancer cell lines. Put plainly: MTT cytotoxicity, mean over cancer cell lines. To be noted: read-out: mean 50% growth inhibition (GI50). As to the method: as §1
Experiment [10] deals with IGROV1. Briefly: MTT cytotoxicity, IGROV1 ovarian cancer. As to the method: as §1

For `Cc1cc([N+](=O)[O-])ccc1N=C(SSC(=Nc1ccc([N+](=O)[O-])cc1C)c1ccc(C(F)(F)F)cc1)c1ccc(C(F)(F)F)cc1` [Compound 12], the GI50 (as a rule, the concentration that inhibits growth by half) in experiment [1] came to 304 nM; in experiment [2], 262 nM; in [3] it was 252 nM; in [4], 388 nM; in experiment [5] it was 221 nM; in [6], 175 nM. Besides, the GI50 in experiment [7] is 141 nM; in experiment [8], 427 nM; in experiment [9] it was 372 nM; in experiment [10] it was 217 nM.
